Laboratory results: US5792784A, “Coupling product obtained from histamine and an amino acid” (Babizhayev; Marc, priority 1993, dated 1998)

Columns and labels:
[1] = Inhibition of phosphatidylcholine liposome peroxidation (Fe/ascorbic acid; TBA/MDA); conditions: for MDA per mg of phospholipids: control 4.4
Excerpt: oxidation substrate: phosphatidylcholine liposomes
free radicals generating system : Fe/ascorbic acid detection: thiobarbituric acid (TBA)/malondialdehyde (MDA)

[2] = Inhibition of linoleic acid peroxidation (Fe/ascorbic acid; TBA/MDA); type: biochemical; conditions: 25 mM (mixture: 25 mM each), linoleic acid 0.25 mg/ml; for MDA per mg of linoleic acid: control 7.95
Method: oxidation substrate: linoleic acid (0.25 mg/ml), free radicals generating system: Fe/ascorbic acid detection: thiobarbituric acid (TBA)/malondialdehyde (MDA)

[3] = "Peroxidase" type activity on liposome model: reduction of phosphatidylcholine hydroperoxides (PC-OOH); type: biochemical
Method: The "peroxidase" type activity also has been evaluated on a "liposome" model. The phosphatidylcholine hydroperoxides (PC-OOH) are prepared according to a similar procedure to the one already described for the linoleic acid monoperoxide.
The peroxide species reduction is followed by dosing the remaining peroxides according to the method laid down by Hicks M and Gebicki J. M.--Anal. Biochem, vol 99, (1979), p. 249-253.

[4] = Inhibition of deoxyribose oxidation (superoxide from xanthine oxidase/hypoxanthine; TBA/MDA detection); type: biochemical; conditions: 10 mM
Excerpt: Several in vitro tests have been carried out in order to reveal the evoked different antioxidant properties.
Experimental procedure described by J. M. C. Gutteridge in Biochemistry Journal, vol. 224 (1984), p. 761-767: oxidation substrate: deoxyribose
Superoxide anions production system: xanthine oxidase/hypoxanthine detection: thiobarbituric acid/malondialdehyde (MDA)

[5] = Tests with peroxidized compounds: reducing behaviour; type: biochemical
[6] = "Peroxidase" activity: reduction of 13-monoperoxide of linoleic acid (L-OOH); type: biochemical; conditions: 10 mM; 13-monoperoxide linoleic acid 0.5 mM; control 36.7
Method: Lipid peroxides evolution is monitored with the help of 3 methods:
1°) spectrophotometric measure at 233 nm
(O. S. Privett, C. Nickell, W. O. Lundberg, and P. D. Bayer, dans J.Am.Oil Chem. Soc, Vol 32 (1955), P.505-511
2°) Iodometric dosage: M.Hicks' and J. M. Gebicki's method, Analytical Biochemistry, vol 99 (1979), p 249-253.
3°) Chromatography on silica gel plate (hexane/ether/acetic acid 8/7/0.1).
(a) 13-monoperoxide linoleic acid 0.5 mM without reducing agent (preparation according to H. W. Gardner's method Lipids, Vol.10 (1975), p. 248-252).

[7] = Protection of micro seaweed oil against oxidation (malondialdehyde dosage, one month); conditions: 20 mmol per L oil
Excerpt: The pseudo-dipeptides products also can be used to protect cosmetic oils easily oxidizable, rich in unsaturated fatty acids formulated in cosmetic or dietetic.
It has been necessary to add 15 to 25 mmol of pseudo-dipeptides products of the invention per liter of oil according to the following formulation: […]
20 mmol of acetylated b-alanyl-histamine oil extracted from micro seaweed cultured in sea water very rich in unsaturated fatty acids, including EPA qs for 1L.
We have compared the ageing of this protected oil to the non-protected oil at the end of a month by the malondialdehyde dosage.

cataract = assay: Cataract patients: modification of the visual acuity at the end of 24 months; type: in vivo; conditions: 1% in isotonic saline, only one daily local dose
Excerpt: This example concerns the utilization of the β-alanyl-histamine to treat patients affected by cataract.
The study has been designed for a prospective evaluation of the modifications of the lens opacity in patients effected by cataract. All the patients have undergone an initial ophtalmic examination. It involved the making of the medical historical record of the patient, a measurement of the visual acuity at a maximum correction, direct or indirect ophtalmoscopies, an evaluation of the opacities with the slit lamp, a clinical grading of the lens after maximal mydriasis, a classification according to the cataract type, and lens pictures by retroillumination. Moreover, samples of blood have been taken at the beginning, then in follow-up for chemical analysis.
The general view has allowed to establish the initial state of patients before the treatment (definition of "base line").
Follow-up of ophtalmic examinations were carried out every two weeks for two months, then every month. They included maximum visual acuity after correction, direct or indirect ophtalmoscopies, a slit lamp examination, and after a maximum dilation of the pupil (excluding patients with primary open-angle glaucoma), a clinical lens grading, a classification of the cataract. Pictures also have been taken on lens observed by retroillumination or with the slit lamp.
In this study, differents groups have been determined, to be seen:
A group reference 1, with non-treated patients (5 patients, 7 eyes) […]
A group 3, has been submitted to the same treatment than the group 2, stimulated by an "attack type of treatment" during the first two weeks: 2 subcon-junctival junctival injections twice a week of 0.10 to 0.15 ml of the saline defined for the group 2 (3 patients, 4 eyes).
A group 4, which was given a local dose by way of an eye drop of isotonic saline twice a day (5 patients 7 eyes), the group 4 being like the group 1, a reference group.
Following the protocol described above, we determine the values of the optic density of the lens according to its opacity as well as the visual acuity, and the whole for 24 months. Considering these two parameters, we obtain tables giving results concerning the modification of the visual acuity at the end of 24 months in Tables 1 and 2, and the results concerning the modification of the visual opacity at the end of 24 months in Tables 3 and 4.

murine splenocytes = assay: Immunostimulating activity in vitro on murine splenocytes (tritiated thymidine incorporation); type: cell-based; conditions: average of three measures
Excerpt: The procedure is extracted from: J. Kunert-Radek, H. Stepien, K. Lyson and M. Pawlikowski--"Effects of calcium channel modulators on the proliferation of mouse spleen lymphocytes in vitro"--Agents and Actions, vol. 29, Nos 3-4 (1990), p. 254-258.
The cell proliferation is followed by the measurement of the extent of incorporation of tritriated thymidine in the cells, expressed in numbers of desintegrations per mn, deducted from the background.
The results obtained with an immunostimulator of reference, concanavaline A, are given as a comparison.
The immunostimulating effect is expressed by an Index of Stimulation (IS) [formula]
The given values are corresponding to the average of three measures.

[8] = tested on: gingival and buccal mucosa; assay: Repairing activity on the mucosa in stomatitis gingivitis; type: in vivo, patients; conditions: aqueous gel 0.28%
Excerpt: We have been able to study this action on stomatitis gingivitis of various origin (dental prothesis badly adapted, the taking by mistake of a corrosive liquid, and colbaltotherapy of the oropharyngeal aera.
In all the cases, the causes of deterioration of the gingival and buccal mucosa have been stopped. Over and above the classical treatments that were adapted and systematically given, was given to 50% of the patients, an aqueous orange flavour gel containing 0.28% of N-acetyl-3-phenyl-3-aminopropionyl-histamine.

gastric ulcer = conditions: rats with limited food-intake-time; cited from earlier work

Compound: NCCC(=O)N[C@@H](Cc1c[nH]cn1)C(=O)O [L-carnosine, β-alanyl-histidine, reference compound]
- MDA per mg of phospholipids ([1]; 10 mM): 2.0 mol MDA per mg of phospholipid
- % inhibition [2]: 59%
- MDA per mg of linoleic acid [2]: 3.24 mol MDA per mg of linoleic aci
- number of moles of PC-OOH reduced/initial number of moles of PC/hour ([3]; 10 mM): 3.16 × 10^-3 moles of PC-OOH reduced/initia
- number of moles of PC-OOH reduced/initial number of moles of PC/hour ([3]; 25 mM): 3.65 × 10^-3 moles of PC-OOH reduced/initia
- % inhibition of deoxyribose oxidation [4]: 37%

Compound: NCCc1c[nH]cn1 [Histamine, histamine]
- % inhibition ([1]; 1 M (so in the source)): -45%
- MDA per mg of phospholipids ([1]; 1 M (so in the source)): 6.4 mol MDA per mg of phospholipid
- % inhibition ([1]; 10 M (so in the source)): -63%
- MDA per mg of phospholipids ([1]; 10 M (so in the source)): 6.8 mol MDA per mg of phospholipid
- % inhibition [2]: -32%
- MDA per mg of linoleic acid [2]: 10.15 mol MDA per mg of linoleic aci

Compound: [BH4-].[Na+] [NaBH4, sodium borohydride, reference compound]
- reducing behaviour towards peroxidized compounds [5]: inhibits in an identical way the reaction of degradation
- "peroxidase" activity [6]: 312.5 mol of L-OOH reduced/hour

Compound: c1c[nH]cn1 [Imidazole]
- % inhibition [2]: 11%
- MDA per mg of linoleic acid [2]: 6.95 mol MDA per mg of linoleic aci

Compound: N[C@@H](Cc1c[nH]cn1)C(=O)O [Histidine]
- % inhibition ([1]; 1 mM): -48%
- MDA per mg of phospholipids ([1]; 1 mM): 6.6 mol MDA per mg of phospholipid

Compound: CC(=O)NCCC(=O)NCCc1c[nH]cn1 [N-acetyl-β-alanyl-histamine]
- protection against oxidation (malondialdehyde dosage) [7]: proves well the activity of the acetylated-β-alanyl-histamine in the protection against oxidation
- results of eye drop treatment versus those previously obtained (cataract): identical to the ones previously obtained

Compound: concanavaline A [reference compound]
- Index of Stimulation (IS) (murine splenocytes; 2.5 μg/ml): 4.8
- Index of Stimulation (IS) (murine splenocytes; 5 μg/ml): 25.1
- Index of Stimulation (IS) (murine splenocytes; 10 μg/ml): 20.5
- Index of Stimulation (IS) (murine splenocytes; 25 μg/ml): 12.6

Compound: NCCC(=O)O [β-alanine]
- % inhibition [2]: 0%
- MDA per mg of linoleic acid [2]: 7.91 mol MDA per mg of linoleic aci

Compound: CC(=O)NC(CC(=O)NCCc1c[nH]cn1)c1ccccc1 (stereo not shown) [N-acetyl-3-phenyl-3-aminopropionyl-histamine]
- tolerance [8]: excellent tolerance

Compound: N- (3-aminopropionyl)--L-histidinato zinc [Z-103]
- gastric ulcer treatment (gastric ulcer): good results
